Measured values: patent US20250110113A1, “HUMAN ORGAN-ON-A-CHIP HAVING REVERSE MICRO-WEIR STRUCTURE AND USES THEREOF” (HUMANASE, priority 2022, published 2025)

Assays:
Format in all cases: cell-based, human
[1] = system: breast cancer cells (MCF-7); assay: Organ-on-a-chip containing breast cancer cells, doxorubicin treatment, optical microscope; conditions: 100 μM doxorubicin in media supply chamber; 24 hours after treatment; MCF-7 cultured 2 days on chip; compared with control group
Method: (§1) As for one set of a media supply chamber and a media recovery chamber included in the organ-on-a-chip of the present invention fabricated in Example 1, 200 μl of media (RPMI 1640 (Gibco) supplemented with 10% fetal bovine serum (FBS, Gibco)) was loaded in each of the chambers. The flow of media was connected between each chamber by using a pipette, and then the media was filled inside the media channel located at both sides to finally form the flow of media. Particularly, it was confirmed that a boundary of the media was formed between the media channel and the cell chamber due to surface tension, with the inverted micro-weir structure serving as a boundary.
Then, 3×10^4 breast cancer cells (Michigan Cancer Foundation-7, MCF-7) were injected into the cell inlet by using a pipette, and the injected breast cancer cells were injected into the cell chamber by pipetting. […] Subsequently, the cells were cultured in a humidified incubator for 2 days under the conditions of 37° C. and 5% CO2.
After 100 μM doxorubicin (TOCRIS) was added to the media supply chamber of the organ-on-a-chip containing breast cancer cells fabricated in Example 2-1-1, a change in breast cancer cells in the organ-on-a-chip due to doxorubicin was observed using an optical microscope, and the degree of damage to the breast cancer cells was compared and analyzed with a control group (FIG. 6). […]

[2] = system: cervical cancer cells (HeLa); assay: Organ-on-a-chip containing cervical cancer cells, doxorubicin treatment, optical microscope; conditions: 100 μM doxorubicin in media supply chamber; 24 hours after treatment; HeLa cultured 2 days on chip; compared with control group
Method: as §1, with “(Dulbecco Modified Eagle Medium (DMEM, Gibco)” for “(RPMI 1640 (Gibco)”, “FBS)” for “fetal bovine serum (FBS, Gibco))”
Then, 3×10^4 cervical cancer cells (HeLa) were injected into the cell inlet by using a pipette, and the injected cervical cancer cells (HeLa) were injected into the cell chamber by pipetting. […] Subsequently, the cells were cultured in a humidified incubator for 2 days under the conditions of 37° C. and 5% CO2.
After 100 μM doxorubicin was added to the media supply chamber of the organ-on-a-chip containing cervical cancer cells (HeLa) fabricated in Example 2-2-1, a change in cervical cancer cells in the organ-on-a-chip due to doxorubicin was observed using an optical microscope, and the degree of damage to the cervical cancer cells was compared and analyzed with a control group (FIG. 7). […]

[3] = system: liver cancer cells (HepG2); assay: Organ-on-a-chip containing liver cancer cells, doxorubicin treatment, optical microscope; conditions: 100 μM doxorubicin in media supply chamber; 24 hours after treatment; HepG2 cultured 2 days on chip; compared with control group
Method: As for one set of a media supply chamber and a media recovery chamber included in the organ-on-a-chip of the present invention fabricated in Example 1, 200 μl of media (Minimum Essential Media Eagle (MEM, high-glucose, Gibco) supplemented with 25 mM HEPES (4-(2-hydroxyethyl)-1-piperazineethanesulfonic acid, Gibco), 25 mM NaHCO3 (Sodium bicarbonate, Sigma-Aldrich), 10% (v/v) FBS, and P/S (100 Uml-1penicillin/100 Uml-1streptomycin, Sigma-Aldrich Co., MO)) was loaded in each of the chambers. The flow of media was connected between each chamber by using a pipette, and then the media was filled inside the media channel located at both sides to finally form the flow of media. Particularly, it was confirmed that a boundary of the media was formed between the media channel and the cell chamber due to surface tension, with the inverted micro-weir structure serving as a boundary. […]
After 100 μM doxorubicin was added to the media supply chamber of the organ-on-a-chip containing liver cancer cells (HepG2) fabricated in Example 2-3-1, a change of liver cancer cells in the organ-on-a-chip due to doxorubicin was observed using an optical microscope, and the degree of damage to the liver cancer cells was compared and analyzed with a control group (FIG. 8). […]

For `COc1cccc2c1C(=O)c1c(O)c3c(c(O)c1C2=O)C[C@@](O)(C(=O)CO)C[C@@H]3O[C@H]1C[C@H](N)[C@H](O)[C@H](C)O1` [doxorubicin], the “degree of damage to the breast cancer cells (cell death)” value [1] was “most of the breast cancer cells cultured in the organ-on-a-chip were dead”, the “degree of damage to the cervical cancer cells (cell death)” value [2] was “most of the cervical cancer cells cultured in the organ-on-a-chip were dead” and the “degree of damage to the liver cancer cells (cell death)” value [3] was “most of the liver cancer cells cultured in the organ-on-a-chip were dead”.
